Assay results taken from patent US20210282399A1, “FUNGICIDAL COMPOSITION” (priority 2018, published 2021).
Values joined by “and” are separate entries in the source; they are usually repeats but may differ in a detail not shown here. Equal entries are not always repeated.

Assays:
Phakopsora pachyrhizi [1] = assay: Field fungicide tests for Asian soybean rust on soybean, Brazil; type: in vivo; details: soybean field plots, three foliar applications; fenpropidin 75-300 g a.i./ha; FIGS. 1 and 2
Protocol: The experiments for fungicide tests for Asian soybean rust (Phakopsora pachyrhizi) were carried out at Experimental Stations in different regions of Brazil. Each plot consisted of at least 15.0 m^2 (3.0 m×5.0 m). The experimental design was a randomized block design with four replicates, using soybean varieties adapted to each region. Three applications of foliar treatments were carried out at 10 to 15 day intervals, depending on the soybean rust pressure at each site. The applications were made with backpack sprayer pressurized with CO^2 set to apply 150 L. ha-1 of spray volume and 0.460 L/min per nozzle. […] The applications of the treatments were performed when the soybean was in stages 60 (First flowers opened (sporadically in population), 72 (About 20% of pods have reached final length (15-20 mm)) and 79 (Approx. pods have reached final length (15-20 mm), seeds filling the cavity of the majority of pods) of the BBCH international scale, respectively. The results were evaluated prior to the application of the treatments, and at 7, 14 and 21, 28 and 35 days after the first application through the visual evaluation of the percentage of disease severity per plot. The harvest was evaluated at a minimum of 5.0 m^2 per plot, and the data were transformed into kg·ha-1.

Phakopsora pachyrhizi [2] = assay: Flow cytometric assay of fungicide efficacy on Phakopsora pachyrhizi urediniospores (healthy vs dead spores, metabolic activity); Wadley and Colby evaluation; type: cell-based; details: for EC50 (Mean) / EC50: based on perturbation of the metabolic activity
Description: in which E represents the expected effect, e.g. percentage of pest control, for the combination of the three active ingredient at defined doses (for example equal to x, y and z respectively), X is the effect, e.g. percentage of pest control, observed for compound (I) at a defined dose (equal to x), Y is the effect, e.g. percentage of pest control, observed for compound (II) at a defined dose (equal to y), Z is the effect, e.g. percentage of pest control, observed for compound (III) at a defined dose (equal to z). When the effect, e.g. percentage of pest control, observed for the combination is greater than the expected effect, there is a synergistic effect. The ratio of observed action (Eobs) and expected action (Eexp), i.e. Eobs/Eexp expresses the factor of interaction level (R) which may be interpreted in accordance with Table 1a below.
In the Wadley method, synergistic activity is determined from dose response curves. With this method, the efficacy of the active ingredient (“a.i.”) is determined by comparing the degree of fungal attack on treated plants with that on untreated, similarly inoculated and incubated check plants. Each a.i. is generally tested at multiple. (e.g., 6) concentrations, and dose response curves are generated. The dose response curves are used to establish the EC50 (i.e., the effective concentration of a.i. providing 50% disease control) of the individual compounds as well as of the combinations (EC50Observed). The experimentally found values of the mixture at a given weight ratio are compared with the values that would have been found were only a complementary efficacy of the components was present as follows:
ECtheo=(a+b)/[(a/ECA)+(b/ECB)]
ECtheo=(a+b+c)/[(a/ECA)+(b/ECB+(c/ECC)]
The ratio EC50 (A+B)Theo/EC50(A+B)observed expresses the factor of interaction level (R) which may be interpreted in accordance with Table 1b below.
Soybean rust, caused by Phakopsora pachyrhizi, is one of the most important foliar diseases of soybean worldwide. Seed of soybean were sown in pots in a loam-vermiculite soil mix and placed inside a growth chamber maintained at 18° C./26° C. night/day and 60 to 70% RH with 16 h of light for 3 weeks.
First leaves were harvested and placed in Petri dishes on 1% water agar. A spore suspension (1×10^5 spores/ml of water) were prepared from infected leaf samples and was sprayed on leaf pieces using an atomizer attached to an air compressor. Petri dishes containing leaf pieces were incubated inside a growth chamber maintained at 18° C./26° C. night/day and 60 to 70% RH with 16 h of light during 2-3 weeks. Urediniospores (1×10^5 spores/ml of water) were harvested from infected leaf samples and equal volumes of spore suspension and fungicide diluted in water were mixed in 96 well plate. Spores are stained by two fluorescent dyes, one which stained dead spores and a one for which intensity of staining is directly correlated to metabolic activity.
Flow cytometric analyses were performed on a CyFlow Cube 8 equipped with an autoloading station (Sysmex Partec GmbH, Gorlittz, Germany). The fluorescences were collected for 2000 to 3000 spores per well and were used to discriminate: (i) healthy spores and (ii) dead spores. The fungicide efficacies were then calculated from the percentage of healthy spores in control condition and in treated condition.
The EC50 is based the perturbation of the metabolic activity.

CC(Cc1ccc(C(C)(C)C)cc1)CN1CCCCC1 (racemic) [Technical Fenpropidin, (±)-1-[3-[4-(1,1-dimethylethyl)phenyl]-2-methylpropyl]piperidine]
effectiveness against Phakopsora pachyrhizi (Phakopsora pachyrhizi [1]): effective | Efficacy % (Phakopsora pachyrhizi [2]; Fenpropidin dose 0.002304 ppm): 10.17% | Efficacy % (Phakopsora pachyrhizi [2]; Fenpropidin dose 0.01152 ppm): 18.55% | EC50 (Mean) (Phakopsora pachyrhizi [2]; mean of Exp 1-3): >7.2 ppm | EC50 (Phakopsora pachyrhizi [2]; single experiments Exp 1-3): >7.2 ppm | % of efficiency, Mean (Phakopsora pachyrhizi [2]; dose 0.0004608 ppm, mean of Exp 1-3): 15.65% | % of efficiency, Mean (Phakopsora pachyrhizi [2]; dose 0.002304 ppm, mean of Exp 1-3): 10.17% | % of efficiency, Mean (Phakopsora pachyrhizi [2]; dose 0.01152 ppm, mean of Exp 1-3): 18.55% | % of efficiency, Mean (Phakopsora pachyrhizi [2]; dose 0.0576 ppm, mean of Exp 1-3): 12.90% | % of efficiency (Phakopsora pachyrhizi [2]; dose 0.0576 ppm, single experiments Exp 1-3): 10.9% and 12.4% and 15.5% | % of efficiency, Mean (Phakopsora pachyrhizi [2]; dose 0.288 ppm, mean of Exp 1-3): 13.31% | % of efficiency (Phakopsora pachyrhizi [2]; dose 0.288 ppm, single experiments Exp 1-3): 15.4% and 9.9% and 14.6% | % of efficiency, Mean (Phakopsora pachyrhizi [2]; dose 1.44 ppm, mean of Exp 1-3): 16.42% | % of efficiency, Mean (Phakopsora pachyrhizi [2]; dose 7.2 ppm, mean of Exp 1-3): 16.74% | EC50 (in 2018) (Phakopsora pachyrhizi [2]; value in brackets, 'in 2018'): (88.916 ppm in 2018)

OC(Cc1ccccc1Cl)(Cn1cncn1)C1(Cl)CC1 (stereo not shown) [Desthio-prothiconazole, Desthio-prothioconazole]
Efficacy % (Phakopsora pachyrhizi [2]; Desthio-prothioconazole dose 0.004544 ppm): 38.49% | Efficacy % (Phakopsora pachyrhizi [2]; Desthio-prothioconazole dose 0.02272 ppm): 49.44%

Cn1cc(C(=O)Nc2ccccc2-c2cc(F)c(F)c(F)c2)c(C(F)F)n1 [Technical Fluxapyroxad, Fluxapyroxad]
Efficacy % (Phakopsora pachyrhizi [2]; Fluxapyroxad dose 0.000576 ppm): 15.24% | Efficacy % (Phakopsora pachyrhizi [2]; Fluxapyroxad dose 0.00288 ppm): 24.72% | EC50 (Mean) (Phakopsora pachyrhizi [2]; mean of Exp 1-3): <>0.202 ppm | EC50 (Phakopsora pachyrhizi [2]; single experiments Exp 1-3): <>0.190 ppm and <>0.214 ppm and <>0.202 ppm | % of efficiency, Mean (Phakopsora pachyrhizi [2]; dose 0.0001152 ppm, mean of Exp 1-3): 19.26% | % of efficiency, Mean (Phakopsora pachyrhizi [2]; dose 0.000576 ppm, mean of Exp 1-3): 15.24% | % of efficiency, Mean (Phakopsora pachyrhizi [2]; dose 0.00288 ppm, mean of Exp 1-3): 24.72% | % of efficiency (Phakopsora pachyrhizi [2]; dose 0.00288 ppm, single experiments Exp 1-3): 18.6% and 37.0% | % of efficiency, Mean (Phakopsora pachyrhizi [2]; dose 0.0144 ppm, mean of Exp 1-3): 18.40% | % of efficiency, Mean (Phakopsora pachyrhizi [2]; dose 0.072 ppm, mean of Exp 1-3): 29.12% | % of efficiency (Phakopsora pachyrhizi [2]; dose 0.072 ppm, single experiments Exp 1-3): 28.8% and 28.6% and 29.9% | % of efficiency, Mean (Phakopsora pachyrhizi [2]; dose 0.36 ppm, mean of Exp 1-3): 59.74% | % of efficiency (Phakopsora pachyrhizi [2]; dose 0.36 ppm, single experiments Exp 1-3): 61.7% and 52.3% and 65.2% | % of efficiency, Mean (Phakopsora pachyrhizi [2]; dose 1.8 ppm, mean of Exp 1-3): 80.82% | % of efficiency (Phakopsora pachyrhizi [2]; dose 1.8 ppm, single experiments Exp 1-3): 88.5% and 83.4% and 70.6%

Mancozeb [Formulated Mancozeb]
Efficacy % (Phakopsora pachyrhizi [2]; Mancozeb dose 0.0128 ppm): 33.27% | Efficacy % (Phakopsora pachyrhizi [2]; Mancozeb dose 0.064 ppm): 50.68% | EC50 (Mean) (Phakopsora pachyrhizi [2]; mean of Exp 1-3): <>0.042 ppm | EC50 (Phakopsora pachyrhizi [2]; single experiments Exp 1-3): <>0.037 ppm and <>0.058 ppm and <>0.032 ppm | % of efficiency, Mean (Phakopsora pachyrhizi [2]; dose 0.00256 ppm, mean of experiments): 11.22% | % of efficiency, Mean (Phakopsora pachyrhizi [2]; dose 0.0128 ppm, mean of experiments): 33.27% | % of efficiency (Phakopsora pachyrhizi [2]; dose 0.0128 ppm, single experiments): 39.9% and 26.2% and 33.7% | % of efficiency, Mean (Phakopsora pachyrhizi [2]; dose 0.064 ppm, mean of experiments): 50.88% | % of efficiency (Phakopsora pachyrhizi [2]; dose 0.064 ppm, single experiments): 59.2% and 43.2% and 49.7% | % of efficiency, Mean (Phakopsora pachyrhizi [2]; dose 0.32 ppm, mean of experiments): 88.10% | % of efficiency (Phakopsora pachyrhizi [2]; dose 0.32 ppm, single experiments): 80.8% and 94.2% and 89.3% | % of efficiency, Mean (Phakopsora pachyrhizi [2]; dose 1.6 ppm, mean of experiments): 95.20% | % of efficiency (Phakopsora pachyrhizi [2]; dose 1.6 ppm, single experiments): 93.6% and 98.7% and 93.2% | % of efficiency, Mean (Phakopsora pachyrhizi [2]; dose 8 ppm, mean of experiments): 94.99% | % of efficiency (Phakopsora pachyrhizi [2]; dose 8 ppm, single experiments): 89.4% and 98.9% and 96.6% | % of efficiency, Mean (Phakopsora pachyrhizi [2]; dose 40 ppm, mean of experiments): 96.58% | % of efficiency (Phakopsora pachyrhizi [2]; dose 40 ppm, single experiments): 92.3% and 99.5% and 97.8%
